Source: patent US10259815B2, “Gabaergic ligands and their uses” (UWM Research Foundation, Inc., priority 2015, dated 2019)

Columns and labels:
[1] = Liver microsomal stability, human; assay type: in vitro ADME; details: 37° C., 4 μM compound, 30 minutes
Description: (§1) In vitro metabolism studies were done in mouse, rat, human, and dogs cells (TABLE 2).
(§2) In vitro liver microsomal studies were completed to measure the stability of the compounds against degradation in various species' liver microsomes.
(§3) Compound was incubated in hepatic microsomes over a 30-minute incubation period at 37° C. Incubations both with and without NADPH (2 mM) were performed in a 96-well plate format. The reaction was initiated with the addition of substrate and was terminated by protein precipitation. All incubations were performed using a final substrate concentration of 4 μM in 50 mM sodium phosphate buffer, pH 7.4. The final organic solvent content was 0.5% acetonitrile and 0.02% DMSO. The amount of enzyme present was fixed at 1.11 mg/mL protein irrespective of the species of microsomes used. Samples were analyzed by LC/MS-MS to determine the percent loss in the NAPDH incubations relative to the NADPH free incubations.

[2] = Liver microsomal stability, dog; assay type: in vitro ADME; details: 37° C., 4 μM compound, 30 minutes
Description: as §1, §2, §3

[3] = Liver microsomal stability, mouse; assay type: in vitro ADME; details: 37° C., 4 μM compound, 30 minutes
Description: as §1, §2, §3

[4] = Liver microsomal stability, rat; assay type: in vitro ADME; details: 37° C., 4 μM compound, 30 minutes
Description: as §1, §2, §3

[5] = Pharmacokinetics after 10 mg/kg P.O. dose, mice; assay type: in vivo; details: mouse, blood, po
Excerpt: Although these are different species, the numbers can still be compared.

[6] = tested on: Male Sprague-Dawley rats; assay: Inverted screen test (muscle relaxation); assay type: in vivo; details: for muscle relaxation / motor impairment in inverted screen: i.p. 30 minutes prior, diazepam 3, 10, 30 mg/kg, KRM-II-81 10, 30, 60 mg/kg, HZ-166 30 mg/kg
Description: (§4) Results were analyzed using ANOVA (Dunnett's test: *P<0.05).
The inverted screen test is used to measure whether or not a test compound induces muscle relaxation. When a test subject is placed on a wire screen which is then inverted, the reaction is to climb to the opposite side so they are no longer hanging upside down. If a compound promotes muscle relaxation, the test subjects will either fall off, or hang onto the screen without being able to climb to the opposite side.
Rats were placed onto the top of a wire screen, which was then inverted so that the rats were hanging upside down. […] Results were analyzed using ANOVA (Dunnett's test: *P<0.05).

[7] = tested on: Male CD-1 mice; assay: Maximal electroshock (MES)-induced convulsion protection; assay type: in vivo; details: i.p. 30 minutes prior to test
Description: Male CD-1 mice (n=10) were dosed i.p. 30 minutes prior to being tested. Results were analyzed using ANOVA (Dunnett's test versus vehicle: *P<0.05).
The maximal electroshock (MES) assay is designed to determine how well a test compound can prevent seizures induced by applying a voltage stimuli to a mouse.
Mice were subjected to electrical induced tonic seizures and examined for anticonvulsant effects 30 minutes after treatment. Mice were then given a 7 mA electroshock using a Wahlquist Model H for 0.2 seconds and observed for the presence or absence of seizure activity. Each mouse is tested only once and euthanized immediately following the test.

[8] = tested on: Male Sprague-Dawley rats; assay: scMET-induced seizure protection, rats; assay type: in vivo; details: pentylenetetrazole 35 mg/kg
Description: A 35 mg/kg subcutaneous dose of pentylenetetrazole was given and the percent outcome of seizure was recorded. Results were analyzed using ANOVA (Dunnett's test: *P<0.05).
Test subjects were given a test compound, followed by a 35 mg/kg dose of MET and observed for convulsions (FIG. 7).
as §4

[9] = tested on: Male Sprague-Dawley rats; assay: PTZ-induced seizure threshold; assay type: in vivo; details: test compound 3 to 60 mg/kg, diazepam 0.1 to 1 mg/kg i.p.
Description: as §4
After a pretreatment of test compound, MET was intravenously administered to a test subject until a convulsions were observed.
Each animal was used only once and was euthanized post testing. Results were analyzed using ANOVA (Dunnett's test: *P<0.05).

[10] = tested on: Sprague Dawley male rats; assay: Mechanical hyperalgesia (von Frey) in CFA-induced inflammatory pain rat model; assay type: in vivo; details: cumulative i.p. dosing, 3 days after CFA
Description: Raw data (paw withdrawal threshold, expressed in g of von Frey filament) was converted to a maximal possible effect value according the following equation: % MPE=[(test threshold(g)−control threshold(g)/(pre-CFA threshold−control threshold)]×100.
Complete Freund's adjuvant (CFA) contains Mycobacterium butyricum, inducing inflammation and an increase in paw thickness. 0.1 mL of CFA was injected in the right hind paw of Sprague Dawley male rats under isoflurane anaesthesia.
Mechanical hyperalgesia. Mechanical hyperalgesia was measured 3 days after CFA treatment. Rats (n=6) were placed in elevated boxes with a mesh floor. Von Frey filaments (expressed in g) were applied perpendicularly to the hindpaws, starting with the lowest filament (1.4 g) then increased until hindpaw withdrawal was observed. After each measurement, rats received the next dose of drug (every 20 min) until the maximum threshold (26 g) was observed. For the antagonist study, rats were pretreated with the benzodiazepine site antagonist flumazenil (10 min) and then received the next dose of drug (every 20 min) until the pre-CFA threshold was observed.
Drugs. The following drugs were used: HZ166, KRM-II-18B, and KRM-II-81, and were dissolved in a mixture containing 20% Dimethyl sulfoxide (DMSO), 10% Emulphor-620 (Rhodia Inc.), and 70% of 0.9% saline. Flumazenil (purchased from Cayman Chemical Company, MI) was dissolved in a mixture containing 10% ethanol, 40% propylene glycol, and 50% sterile water. Midazolam (Akorn, Inc.) was dissolved in 0.9% saline. Doses were expressed as the weight of the drug in milligrams per kilogram of body weight and drugs were administered intraperitoneally.

[11] = tested on: Male CD-1 mice; details: previously shown; cited from earlier work
[12] = tested on: Male Sprague-Dawley rats; details: previously shown; species not stated; cited from earlier work
[13] = tested on: rhesus monkeys; details: previously shown; cited from earlier work
[14] = tested on: Male Sprague-Dawley rats; details: has been shown; cited from earlier work
[15] = tested on: Male NIH Swiss mice; details: previously shown; cited from earlier work
[16] = target: GABAA/α1 receptors (Homo sapiens, UniProt P14867+P18507); details: as disclosed in Huang, et al., J. Med. Chem. 2000; cited from earlier work
[17] = target: GABAA/α2 (Homo sapiens, UniProt P18507+P47869); details: as disclosed in Huang, et al., J. Med. Chem. 2000; cited from earlier work
[18] = target: GABAA/α3 (Homo sapiens, UniProt P18507+P34903); details: as disclosed in Huang, et al., J. Med. Chem. 2000; cited from earlier work
[19] = target: GABAA/α5 receptors (Homo sapiens, UniProt P18507+P31644); details: as disclosed in Huang, et al., J. Med. Chem. 2000; cited from earlier work
Sequence of GABAA/α5 receptors (P31644 32-462): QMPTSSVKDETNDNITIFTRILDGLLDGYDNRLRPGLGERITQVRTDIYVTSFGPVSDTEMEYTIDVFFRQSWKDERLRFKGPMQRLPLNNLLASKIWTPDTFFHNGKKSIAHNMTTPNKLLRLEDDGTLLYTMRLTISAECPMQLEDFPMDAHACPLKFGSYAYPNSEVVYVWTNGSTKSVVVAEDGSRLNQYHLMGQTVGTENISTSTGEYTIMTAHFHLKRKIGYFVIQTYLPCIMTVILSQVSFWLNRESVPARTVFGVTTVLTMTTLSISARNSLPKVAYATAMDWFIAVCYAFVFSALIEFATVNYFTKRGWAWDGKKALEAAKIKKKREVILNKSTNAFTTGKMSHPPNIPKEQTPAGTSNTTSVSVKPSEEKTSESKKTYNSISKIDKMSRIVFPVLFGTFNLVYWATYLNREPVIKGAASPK
Sequence of GABAA/α5 receptors (P28472 26-473 partner): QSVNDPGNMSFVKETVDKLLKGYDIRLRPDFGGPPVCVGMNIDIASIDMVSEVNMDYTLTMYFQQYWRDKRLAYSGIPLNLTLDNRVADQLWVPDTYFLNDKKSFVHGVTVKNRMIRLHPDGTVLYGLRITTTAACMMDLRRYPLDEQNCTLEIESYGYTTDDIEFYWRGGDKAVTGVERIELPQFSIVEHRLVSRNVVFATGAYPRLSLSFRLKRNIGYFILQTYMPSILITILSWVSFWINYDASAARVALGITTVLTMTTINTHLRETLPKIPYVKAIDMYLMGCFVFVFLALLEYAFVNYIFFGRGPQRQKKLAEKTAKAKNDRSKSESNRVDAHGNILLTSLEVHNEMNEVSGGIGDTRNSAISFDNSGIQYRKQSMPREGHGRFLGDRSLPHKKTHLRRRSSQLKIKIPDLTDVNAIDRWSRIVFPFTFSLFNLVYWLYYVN
Sequence of GABAA/α5 receptors (P18507 40-475): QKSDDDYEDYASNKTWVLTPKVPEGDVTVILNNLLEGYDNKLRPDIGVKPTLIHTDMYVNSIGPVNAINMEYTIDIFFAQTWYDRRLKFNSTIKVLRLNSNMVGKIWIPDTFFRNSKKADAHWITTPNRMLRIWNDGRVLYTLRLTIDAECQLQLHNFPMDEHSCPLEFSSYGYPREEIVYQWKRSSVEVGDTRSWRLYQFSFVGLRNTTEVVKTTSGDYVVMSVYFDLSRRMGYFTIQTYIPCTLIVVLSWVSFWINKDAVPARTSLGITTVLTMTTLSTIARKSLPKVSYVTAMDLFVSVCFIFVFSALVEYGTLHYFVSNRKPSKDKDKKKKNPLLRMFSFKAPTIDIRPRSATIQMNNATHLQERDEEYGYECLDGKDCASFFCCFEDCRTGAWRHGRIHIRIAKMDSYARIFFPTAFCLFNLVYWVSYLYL

Sequence of GABAA/α3 (P34903 29-492): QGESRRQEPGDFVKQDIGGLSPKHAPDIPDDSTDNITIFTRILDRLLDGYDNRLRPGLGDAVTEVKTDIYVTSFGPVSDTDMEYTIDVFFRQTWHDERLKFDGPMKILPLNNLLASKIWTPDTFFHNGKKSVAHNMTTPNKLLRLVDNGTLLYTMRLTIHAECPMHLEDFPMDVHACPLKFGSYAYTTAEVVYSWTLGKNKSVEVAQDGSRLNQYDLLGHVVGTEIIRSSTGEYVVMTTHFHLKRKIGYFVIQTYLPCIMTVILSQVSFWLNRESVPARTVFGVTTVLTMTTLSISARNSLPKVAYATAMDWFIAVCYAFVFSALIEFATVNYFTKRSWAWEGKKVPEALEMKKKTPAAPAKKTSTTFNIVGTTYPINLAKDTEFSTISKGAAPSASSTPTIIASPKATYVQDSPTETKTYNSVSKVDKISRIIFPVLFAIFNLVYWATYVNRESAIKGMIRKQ
Sequence of GABAA/α3 (P28472 26-473 partner): as the sequence (P28472 26-473 partner) above
Sequence of GABAA/α3 (P18507 40-475): as the sequence (P18507 40-475) above
Sequence of GABAA/α2 (P47869 29-451): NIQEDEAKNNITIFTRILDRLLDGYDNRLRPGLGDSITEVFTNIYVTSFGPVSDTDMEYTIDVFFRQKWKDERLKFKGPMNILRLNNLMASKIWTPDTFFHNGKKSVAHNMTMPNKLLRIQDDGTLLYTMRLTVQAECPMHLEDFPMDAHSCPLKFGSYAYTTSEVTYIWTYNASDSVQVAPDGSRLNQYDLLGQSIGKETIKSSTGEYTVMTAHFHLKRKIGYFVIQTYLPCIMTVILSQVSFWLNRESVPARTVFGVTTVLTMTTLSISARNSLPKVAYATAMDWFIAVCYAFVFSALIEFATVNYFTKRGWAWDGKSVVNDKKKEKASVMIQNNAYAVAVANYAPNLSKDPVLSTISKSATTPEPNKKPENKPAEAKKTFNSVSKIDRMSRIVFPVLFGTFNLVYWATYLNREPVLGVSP
Sequence of GABAA/α2 (P28472 26-473 partner): as the sequence (P28472 26-473 partner) above
Sequence of GABAA/α2 (P18507 40-475): as the sequence (P18507 40-475) above
Sequence of GABAA/α1 receptors (P14867 28-456): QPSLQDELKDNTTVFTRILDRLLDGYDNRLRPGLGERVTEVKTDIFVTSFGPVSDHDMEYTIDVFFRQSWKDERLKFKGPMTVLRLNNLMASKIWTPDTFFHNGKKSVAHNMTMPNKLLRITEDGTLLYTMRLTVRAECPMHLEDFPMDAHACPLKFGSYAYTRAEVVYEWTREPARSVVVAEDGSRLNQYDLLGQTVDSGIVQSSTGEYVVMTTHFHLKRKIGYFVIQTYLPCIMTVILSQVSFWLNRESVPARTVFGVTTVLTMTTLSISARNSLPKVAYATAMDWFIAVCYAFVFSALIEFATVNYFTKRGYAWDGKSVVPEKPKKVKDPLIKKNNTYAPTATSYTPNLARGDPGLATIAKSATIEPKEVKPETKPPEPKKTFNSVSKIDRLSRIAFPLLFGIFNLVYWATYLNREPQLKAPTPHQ
Sequence of GABAA/α1 receptors (P28472 26-473 partner): as the sequence (P28472 26-473 partner) above
Sequence of GABAA/α1 receptors (P18507 40-475): as the sequence (P18507 40-475) above

C#Cc1ccc2c(c1)C(c1ccccn1)=NCc1c(C(=O)OCC)ncn1-2 [HZ-166, Ethyl-8-ethynyl-6-(pyridin-2-yl)-4H-benzo[f]imidazo[1,5-a][1,4]diazepine-3-carboxylate]
Human Liver microsome stability (reported in % remaining) [1]: 80 % remaining | Dog Liver microsome stability (reported in % remaining) [2]: 97 % remaining | Mouse Liver microsome stability (reported in % remaining) [3]: 54 % remaining | Rat Liver microsome stability (reported in % remaining) [4]: 50 % remaining | Tmax [5]: 5.58 h | Cmax ([5]; read-out: Cmax (highest concentration found in blood)): 4.11 ng/mL | muscle relaxation / motor impairment in inverted screen [6]: Neither HZ-166 nor KRM-II-81 induced significant muscle relaxation | dose at which signs of muscle relaxation began to appear ([6]; i.p., inverted screen): 30 mg/kg | protection against MES-induced seizures [7]: did not | effect against scMET seizures at 30 mg/kg ([8]; 30 mg/kg i.p.): little effect | effect on seizure threshold to PTZ [9]: little protection | mechanical hyperalgesia in CFA-induced inflammatory pain [10]: dose-dependently attenuated mechanical hyperalgesia | effectiveness in MES assay [11]: effective in this assay | protection against scMET-induced seizures [12]: giving protection against scMET-induced seizures | effectiveness in conflict procedure [13]: effective in rhesus monkeys | performance in von Frey filament assay [14]: perform well in this assay | doses with no ataxic complications [15]: over 100 mg/kg

C#Cc1ccc2c(c1)C(c1ccccc1)=NCC(=O)N2C [QH-ii-066]
Ki [16]: > 70 nM | Ki [17]: < 50 nM | Ki [18]: < 50 nM | Ki [19]: < 10 nM

CN1C(=O)CN=C(c2ccccc2)c2cc(Cl)ccc21 [diazepam, reference compound]
muscle relaxation / motor impairment in inverted screen [6]: produced full motor impairment | protection against MES-induced seizures [7]: fully protected against seizure induction | dose achieving significant protection against scMET seizures ([8]; i.p. 30 minutes prior): 10 mg/kg | effect on seizure threshold to PTZ [9]: significantly increased the seizure threshold to PTZ
